We go through 23 compounds from US5258362A, “Renin inhibiting compounds” (Abbott Laboratories, priority 1992, dated 1993).

For this assay, the target named is T1, human renal renin (Homo sapiens, UniProt P00797).
T1 construct: human renal renin, free from acid proteolytic activity; from tissue; host or cells: human kidney (from the word 'renal')
T1 sequence (P00797 67-406): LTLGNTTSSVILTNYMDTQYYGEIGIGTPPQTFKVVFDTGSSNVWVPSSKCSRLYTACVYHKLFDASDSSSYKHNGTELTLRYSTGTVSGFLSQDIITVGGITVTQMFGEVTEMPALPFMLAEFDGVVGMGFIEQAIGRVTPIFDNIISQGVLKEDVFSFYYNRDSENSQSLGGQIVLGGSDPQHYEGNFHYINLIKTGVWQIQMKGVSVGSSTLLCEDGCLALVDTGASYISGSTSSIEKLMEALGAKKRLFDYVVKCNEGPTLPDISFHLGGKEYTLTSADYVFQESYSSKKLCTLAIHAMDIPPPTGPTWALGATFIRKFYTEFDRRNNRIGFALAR
Put plainly: Inhibition of human renal renin in vitro (angiotensin I formed, measured by radioimmunoassay). In kind it is biochemical. The conditions noted are these: human renal renin with renin substrate (human angiotensinogen), 37° C., pH 6.0. Here is the method:
At the end of the incubation, the amount of angiotensin I formed is measured by radioimmunoassay and the molar concentration required to cause 50% inhibition, expressed as the IC50 is calculated.
Take `CCCC[C@H](NC(=O)C(Cc1ccccc1)Cn1ccnc1)C(=O)N[C@@H](CC1CCCCC1)[C@@H](O)[C@H]1OC[C@@H]1CC` (mixture of isomers) [Example 154, (2RS)-2-Benzyl-3-(imidazol-1-yl)propionyl-(nor)Leucine Amide of (1R,2S,2'S,3'S)-2-Amino-3-cyclohexyl-1-[3'-(ethyl)oxetan-2'-yl]-1-(hydroxy)propane]: the IC50 was found to be 0.7 nM.

`CC[C@H]1CO[C@@H]1[C@H](O)[C@H](CC1CCCCC1)NC(=O)C(Cc1cnc[nH]1)NC(=O)C(Cc1ccccc1)NC(=O)OC(C)(C)C` (stereo partly drawn) [Example 40, Boc-Phe-His Amide of (1R,2S,2'S,3'S)-2-Amino-3-cyclohexyl-1-[3'-(ethyl)oxetan-2'-yl]-1-(hydroxy)propane] had a half-inhibitory concentration (IC50) of 0.47 nM.

`CC(C)[C@H]1CO[C@@H]1[C@H](O)[C@H](CC1CCCCC1)NC(=O)[C@H](Cc1cnc[nH]1)NC(=O)[C@H](Cc1ccccc1)NC(=O)OC(C)(C)C` [Example 41, Boc-Phe-His Amide of (1R,2S,2'S,3'S)-2-Amino-3-cyclohexyl-1-hydroxy-1-[3'-(isopropyl)oxetan-2'- yl]propane] gave a concentration for half-maximal inhibition (IC50) of 0.61 nM. The IC50 values of the last two compounds are within 1.5-fold of each other.

`CCC[C@H]1CO[C@@H]1[C@H](O)[C@H](CC1CCCCC1)NC(=O)C(Cc1cnc[nH]1)NC(=O)C(Cc1ccccc1)NC(=O)OC(C)(C)C` (stereo partly drawn) [Example 43, Boc-Phe-His Amide of (1R,2S,2'S,3'S)-2-Amino-3-cyclohexyl-1-hydroxy-1-[3'-(propyl)oxetan-2'-yl]propane] returned an IC50 of 0.38 nM.

`CC(C)C[C@H]1CO[C@@H]1[C@H](O)[C@H](CC1CCCCC1)NC(=O)[C@H](Cc1cnc[nH]1)NC(=O)[C@H](Cc1ccccc1)NC(=O)OC(C)(C)C` [Example 44, Boc-Phe-His Amide of (1R,2S,2'S,3'S)-2-Amino-3-cyclohexyl-1-hydroxy-1-[3'-(isobutyl)oxetan-2'-yl]propane] had an IC50 of 1.1 nM.

The compound `CC(C)(C)OC(=O)NC(Cc1ccccc1)C(=O)NC(Cc1cnc[nH]1)C(=O)N[C@@H](CC1CCCCC1)[C@@H](O)[C@@H]1CCO1` (stereo partly drawn) [Example 45, Boc-Phe-His Amide of (1R,2S,2'S)-2-Amino-3-cyclohexyl-1-hydroxy-1-(oxetan-2'-yl)propane] displayed an IC50 of 1.2 nM.

The compound `C[C@H]1CO[C@@H]1[C@H](O)[C@H](CC1CCCCC1)NC(=O)C(Cc1cnc[nH]1)NC(=O)C(Cc1ccccc1)NC(=O)OC(C)(C)C` (stereo partly drawn) [Example 46, Boc-Phe-His Amide of (1R,2S,2'S,3'S)-2-Amino-3-cyclohexyl-1-hydroxy-1-[3'-(methyl)oxetan-2'-yl]propane] showed a 50% inhibitory concentration (IC50) of 0.51 nM.

In turn, `CC([C@H]1CO[C@@H]1[C@H](O)[C@H](CC1CCCCC1)NC(=O)[C@H](Cc1cnc[nH]1)NC(=O)[C@H](Cc1ccccc1)NC(=O)OC(C)(C)C)C(F)(F)F` (stereo partly drawn) [Example 47, Boc-Phe-His Amide of (1R,2S,2'S,3'S)-2-Amino-3-cyclohexyl-1-hydroxy-1-[3'-(1,1,1-trifluoroisopropyl)oxetan-2'-yl]propane] returned a 50% inhibitory concentration (IC50) of 1.2 nM.

`CC(C)(C)OC(=O)N[C@@H](Cc1ccccc1)C(=O)N[C@@H](Cc1cnc[nH]1)C(=O)N[C@@H](CC1CCCCC1)[C@@H](O)[C@H]1OCC1(C)C` [Example 48, Boc-Phe-His Amide of (1R,2S,2'S)-2-Amino-3-cyclohexyl-1-[3',3'-(dimethyl)oxetan-2'-yl]-1-(hydroxy)propane] came in with a half-maximal inhibitory concentration (IC50) of 1 nM.

Take `CC[C@H]1CO[C@@H]1[C@H](O)[C@H](CC1CCCCC1)NC(=O)C(Cc1cscn1)NC(=O)[C@H](Cc1ccccc1)CS(=O)(=O)N1CCN(C)CC1` (stereo partly drawn) [Example 68, (2S) 2-Benzyl-3-(1-methyl-piperazin-4-ylsulfonyl)propionyl-(4-thiazolyl)alanineAmide of (1R,2S,2'S,3'S)-2-Amino-3-cyclohexyl-1-[3'-(ethyl)oxetan-2'-yl]-1-(hydroxy)propane]: it took 0.19 nM to reach half-maximal inhibition (IC50).

In turn, `CC[C@H]1CO[C@@H]1[C@H](O)[C@H](CC1CCCCC1)NC(=O)[C@H](Cc1cscn1)NC(=O)[C@@H](CC(=O)N1CCOCC1)Cc1ccccc1` [Example 69, (2R)-2-Benzyl-3-(morpholinocarbonyl)propionyl-(4-thiazolyl)alanine Amide of (1R,2S,2'S,3'S)-2-Amino-3-cyclohexyl-1-[3'-(ethyl)oxetan-2'-yl]-1-(hydroxy)propane] had an IC50 of 0.25 nM.

In turn, `CC[C@H]1CO[C@@H]1[C@H](O)[C@H](CC1CCCCC1)NC(=O)C(Cc1cscn1)NC(=O)[C@@H](CC(=O)N1CCN(C)CC1)Cc1ccccc1` (stereo partly drawn) [Example 70, (2R)-2-Benzyl-3-[(4-methylpiperazin-1-yl)carbonyl]propionyl-(4-thiazolyl)alanine Amide of (1R,2S,2'S,3'S)-2-Amino-3-cyclohexyl-1-[3'-(ethyl)oxetan-2'-yl]-1-(hydroxy)propane] yielded a 50% inhibitory concentration (IC50) of 0.2 nM.

As for `CC[C@H]1CO[C@@H]1[C@H](O)[C@H](CC1CCCCC1)NC(=O)[C@H](Cc1cscn1)NC(=O)[C@@H](CC(=O)N(C)CCc1ccccn1)Cc1ccccc1` [Example 71, (2R)-2-Benzyl-3-[(2-pyridin-2-ylethyl)methylaminocarbonyl]propionyl-(4-thiazolyl)alanine Amide of (1R,2S,2'S,3'S)-2-Amino-3-cyclohexyl-1-[3'-(ethyl)oxetan-2'-yl]-1-(hydroxy)propane], the half-maximal inhibitory concentration (IC50) was determined as 0.27 nM.

`CCCC[C@H](O[C@@H](Cc1ccccc1)C(=O)N1CCC(OCOC)CC1)C(=O)N[C@@H](CC1CCCCC1)[C@@H](O)[C@H]1OC[C@@H]1C(C)C` [Example 72, (2S)-[(1S)-[(Methoxymethoxy)piperidin-1-yl]carbonyl-2-phenylethoxy]hexanoicAcid Amide of (1R,2S,2'S,3'S)-2-Amino-3-cyclohexyl-1-[3'-(isopropyl)oxetan-2'-yl]-1-(hydroxy)propane]: the half-inhibitory concentration (IC50) turned out to be 0.8 nM.

`CC[C@H]1CO[C@@H]1[C@H](O)[C@H](CC1CCCCC1)NC(=O)C(Cc1cscn1)NC(=O)[C@H](Cc1ccccc1)Cn1ccnc1` (stereo partly drawn) [Example 76, (2R)-2-Benzyl-3-(imidazol-1-yl)propionyl-(4-thiazolyl)alanine Amide of (1R,2S,2'S,3'S)-1-Amino-3-cyclohexyl-1-[3'-(ethyl)oxetan-2'-yl]-1-(hydroxy)propane] showed a concentration for half-maximal inhibition (IC50) of 0.28 nM.

In turn, `CCCC[C@H](NC(=O)[C@@H](CC(=O)N1CCN(C)CC1)Cc1ccccc1)C(=O)N[C@@H](CC1CCCCC1)[C@@H](O)[C@H]1OC[C@@H]1CC` [Example 155, (2R)-2-Benzyl-3-(4-methylpiperazin-1-ylcarbonyl)propionyl(nor)Leucine Amide of (1R,2S,2'S,3'S)-2-Amino-3-cyclohexyl-1-[3'-(ethyl)oxetan-2'-yl]-1-(hydroxy)propane] displayed a half-maximal inhibitory concentration (IC50) of 0.37 nM. The IC50 values of the last two compounds are within 1.5-fold of each other.

`CC[C@H]1CO[C@@H]1[C@H](O)[C@H](CC1CCCCC1)NC(=O)[C@H](CC(C)C)NC(=O)[C@@H](CC(=O)N1CCN(C)CC1)Cc1ccccc1` [Example 163, (2R)-2-Benzyl-3-(4-methylpiperazin-1-ylcarbonyl)propionyl-leucine Amide of (1R,2S,2'S,3'S)-2-Amino-3-cyclohexyl-1-[3'-(ethyl)oxetan-2'-yl]-1-(hydroxy)propane] displayed an IC50 of 0.51 nM.

With `CCOC(=O)NC(Cc1ccccc1)C(=O)NC(CC(C)C)C(=O)N[C@@H](CC1CCCCC1)[C@@H](O)[C@H]1OC[C@@H]1CC` (stereo partly drawn) [Example 164, Ethoxycarbonyl-Phe-Leu Amide of (1R,2S,2'S,3'S)-2-Amino-3-cyclohexyl-1-[3'-(ethyl)oxetan-2'-yl]-1-(hydroxy)propane], it took 0.46 nM to reach half-maximal inhibition (IC50).

In turn, `CC[C@H]1CO[C@@H]1[C@H](O)[C@H](CC(C)C)NC(=O)C(Cc1cnc[nH]1)NC(=O)C(Cc1ccccc1)NC(=O)OC(C)(C)C` (stereo partly drawn) [Example 171, Boc-Phe-His Amide of (1R,2S,2'S,3'S)-2-Amino-1-[3'-(ethyl)oxetan-2'-yl]-1-hydroxy-4-(methyl)pentane] displayed a half-maximal inhibitory concentration (IC50) of 0.5 nM.

Compound `CC[C@H]1CO[C@@H]1[C@H](O)[C@H](CC(C)C)NC(=O)C(Cc1cscn1)NC(=O)[C@H](Cc1ccccc1)CS(=O)(=O)N1CCN(C)CC1` (stereo partly drawn) [Example 178, (2S) 2-Benzyl-3-(1-methyl-piperazin-4-ylsulfonyl)propionyl-(4-thiazolyl)alanineAmide of (1R,2S,2'S,3'S)-2-Amido-1-[3'-(ethyl)oxetan-2'-yl]-1-hydroxy-4-(methyl)pentane] yielded an IC50 of 0.38 nM.

Turning to `CC[C@H]1CO[C@@H]1[C@H](O)[C@H](CC(C)C)NC(=O)C(Cc1cscn1)NC(=O)[C@H](Cc1ccccc1)Cn1ccnc1` (stereo partly drawn) [Example 181, (2R)-2-Benzyl-3-(imidazol-1-yl)propionyl-(4-thiazolyl)alanine Amide of (1R,2S,2S',3'S)-2-Amino-1-(3'-(ethyl)oxetan-2'-yl]-1-hydroxy-4-(methyl)pentane], half-maximal inhibition (IC50) was put at 3.7 nM.

`CC[C@H]1CO[C@@H]1[C@H](O)[C@H](CC1CCCCC1)NC(=O)[C@H](CC(C)C)NC(=O)[C@H](Cc1ccccc1)Cn1ccnc1` [Example 182, (2R)-2-Benzyl-3-(imidazol-1-yl)propionyl-Leucine Amide of (1R,2S,2'S,3'S)-2-Amino-3-cyclohexyl-1-[3'-(ethyl)oxetan-2'-yl]-1-(hydroxy)propane] yielded an IC50 of 0.65 nM.

In turn, `CC[C@H]1CO[C@@H]1[C@H](O)[C@H](CC1CCCCC1)NC(=O)[C@H](CC(C)C)NC(=O)C(Cc1ccccc1)Cc1ccccc1` [Example 183, Dibenzylacetyl-Leucine Amide of (1R,2S,2'S,3'S)-2-Amino-3-cyclohexyl-1-[3'-(ethyl)oxetan-2'-yl]-1-(hydroxy)propane] gave a 50% inhibitory concentration (IC50) of 1.2 nM.

The term IC50 denotes the concentration that inhibits the measured activity by half. A high value points to weaker potency.
